Data from US8207211B2, “Photosensitizers for targeted photodynamic therapy” (The General Hospital Corporation, priority 2005, dated 2012).

What was measured:
[1] = Octanol-water distribution coefficient; type: physicochemical; details: 1-octanol/DI water, absorbance at 330 nm
Experimental: Each compound was dissolved in a minimum amount of DMSO: CI1 (0.9 mg in 200 μl), CI2 (5.3 mg in 200 μl), CI3 (5.4 mg in 200 μl). Ten ml of DI water and 10 ml of 1-octanol were added in each compound and vigorously shaken for 2 min. and the vials of the compounds were settled down overnight. The phases were separated and UV-spectra of each phase were analyzed. Distribution coefficient of each compound was determined using absorbance of aqueous phases and organic phases at 330 nm.

[2] = Solubility in DMSO stock solution; type: physicochemical; details: lower stock concentration used than for the other fullerenes
Experimental: (§1) Typically, derivatized fullerenes prepared as described above are dissolved in DMSO to provide stock solutions having final concentrations of about 5 mM. […] All stock solutions were stored in the dark at room temperature.
Six fullerene derivatives (NI1-3 and CI1-3) were evaluated. […] Concentration of fullerene derivatives used in the experiments varied between 1 and 100 μM.

[3] = test system: S. aureus; test: Photodynamic inactivation (PDI), CFU survival, white light (red light for TBO); type: cell-based, Staphylococcus aureus
Experimental: (§2) Staphylococcus aureus (ATCC #35556), Escherichia coli (ATCC #25922), and Pseudomonas aeruginosa (ATCC #BAA-47; PAO1) were cultured in brain-heart infusion (BHI) broth (Difco, BD Diagnosttic Systems, Sparks, Md.) at 37° C. in aerobic conditions in a shaker at 150 rpm. Candida albicans (ATCC #18804) is grown in YM broth (Difco). Exponential cultures obtained by reculturing stationary overnight precultures were used for experiments.
(§3) E. coli, P. aeruginosa, and S. aureus are grown in fresh medium for approximately 1 hr to a density of about 10^8 cells/ml; the OD values at 650 nm are 0.6, 0.8, and 0.8, respectively. C. albicans is grown for approximately 4 hr to an approximate density of 10^8 cells/ml, corresponding to an OD of 6 at 650 nm (measured at 10-fold dilution). Cells were used for experiments in the mid-log growth phase.
A noncoherent lamp with filtered liquid light guides, e.g., a LumaCare™ LC122 lamp (MBG Technologies, Inc., Newport Beach, Calif.) was used to provide illumination of PS. […] The lamp was adjusted to give a uniform spot of about 4 cm diameter with an irradiance of 200 mW/cm^2, as measured with a power meter, e.g., a model DMM 199 meter with 201 Standard head (Coherent, Santa Clara, Calif.). […]
Illumination was carried out from above on microbial cell suspensions in wells of a 24-well plate. […] Survival fractions were calculated with reference to cells incubated in PBS alone. […]

[4] = test system: E. coli; test: as above; type: cell-based, Escherichia coli; details: 10 μM; for change of E. coli killing in the presence of serum versus no serum: white light; for PDT activity against E. coli: white light up to 50 J/cm^2
Experimental: as §2, §3
(§4) A noncoherent lamp with filtered liquid light guides, e.g., a LumaCare™ LC122 lamp (MBG Technologies, Inc., Newport Beach, Calif.) was used to provide illumination of PS. More specifically, for illumination of fullerenes, a broad-band white light band pass filter (400-700 nm) was used, whereas for TBO, a band pass filter at 620-650 nm was used. The lamp was adjusted to give a uniform spot of about 4 cm diameter with an irradiance of 200 mW/cm^2, as measured with a power meter, e.g., a model DMM 199 meter with 201 Standard head (Coherent, Santa Clara, Calif.).
as §1
(§5) In some experiments, for example in studies described in Examples below, suspensions of S. aureus cells (10^8 per ml) were incubated with derivatized fullerenes such as NI-1-3 and CI1-3 at a concentration of 100 μM in PBS at room temperature for 10 min. In other experiments, the bacterial suspension was centrifuged (4000×g for 10 min) after incubation and resuspended in fresh PBS before illumination; the latter procedure was referred to herein as a “wash.” E. coli, P. aeruginosa, and C. albicans were used at concentrations of about 10^8 cells per ml.
(§6) Illumination was carried out from above on microbial cell suspensions in wells of a 24-well plate. Aliquots were removed at times corresponding to the delivery of calculated fluences of light, and were serially diluted in PBS and streaked on square BHI or YM agar plates according to the method of Jett et al. (Jett, B. D., Hatter, K. L., Huycke, M. M., and Gilmore, M. S. (1997). Simplified agar plate method for quantifying viable bacteria. Biotechniques 23, 648-650). Survival fractions were calculated with reference to cells incubated in PBS alone. Values on killing curves at 0 J/cm^2 represent the dark toxicity of the fullerenes or other PS tested. Control cells were treated with light and no PS and also analyzed for viability.

[5] = test system: P. aeruginosa; test: as above; type: cell-based, Pseudomonas aeruginosa; details: 10 μM; for PDT activity against P. aeruginosa: white light up to 50 J/cm^2
Experimental: as §2, §3, §4, §1, §5, §6

[6] = test system: C. albicans; test: as above; type: cell-based, Candida albicans; details: 10 μM; for PDT activity against C. albicans: white light up to 50 J/cm^2
Experimental: as §2, §3, §4, §1, §5, §6

[7] = test system: L929 murine fibroblast line; test: Mammalian cell toxicity, MTT viability assay after illumination; type: cell-based, mouse; details: 10 μM, 10 min; for toxicity to L929 mammalian cells at fluences used for PDI of pathogens: white light up to 50 J/cm^2
Excerpt: Experiments to test the effect of functionalized fullerenes on mammalian cells can be performed in a suitable mammalian cell line. One such cell line is the L929 murine fibroblast line (ATCC #CCL1), a spontaneously transformed immortalized cell line established from the normal subcutaneous areolar and adipose tissue of a male C3H/An mouse (Earle, W. R., Schilling, E. L., Stark, T. H., Straus, N. P., Brown, M. F., and Shelton, E. (1943). Production of malignancy in vitro. IV. The mouse fibroblast cultures and changes seen in the living cells. J. Natl. Cancer Inst. 4, 165-212). In a suitable assay, these cells were cultured in Dulbecco's modified Eagle's medium (Sigma) at 37° C. in a humidified atmosphere containing 5% CO2. The medium is preferably modified by using 4 mM L-glutamine (containing 1.5 g/l sodium bicarbonate and 4.5 g/l glucose), 10% fetal bovine serum (FBS), 100 U/ml penicillin, and […] streptomycin. Cells were plated in 96-well cell culture plates, at a density of about 300 cells/well, and are allowed to attach for 24 hr.
Fullerenes and other PS, e.g., TBO, were added at a concentration of about 10 μM in 200 μl complete medium per well. After 10 min, fresh medium is added, and the cultures were illuminated with white light (for fullerenes) or with red light (for TBO). At the completion of the illumination period, cells were returned to the incubator for 24 hr. Cell viability can be determined, for example, by using the MTT-microculture tetrazolium assay, a method of assessing cellular response to PDT (Merlin, J. L., Azzi, S., Lignon, D., Ramacci, C., Zeghari, N., and Guillemin, F. (1992). MTT assays allow quick and reliable measurement of the response of human tumour cells to photodynamic therapy. Eur. J. Cancer 28A, 1452-1458. This assay involves the reduction of a colorless substrate, i.e., 3-[4,5-Dimethylthiazol-2-yl]-diphenyltetrazolium bromide (Sigma, St. Louis, […].) to an insoluble dark-blue formazan product which is formed in proportion to the amount of succinate dehydrogenase activity in the mitochondria of living cells. After incubation with MTT for periods ranging from 4 to 8 hr, the medium was aspirated from each well, and […] DMSO is added. The absorbance at 570 nm was read by a microplate reader, e.g., a Spectra Max™ 340 PC (Molecular Devices, Sunnyvale, Calif.). The fraction of cells surviving was calculated by dividing the mean absorbances of formazan produced from PDT-treated cells by the mean absorbances from dark controls incubated with PS and kept at room temperature for periods of time equal to the irradiation times.

[8] = test system: S. aureus; test: Photodynamic inactivation (PDI), CFU survival, white light (red light for TBO); type: cell-based, Staphylococcus aureus; details: for PDT activity against S. aureus: 10 min, white light up to 50 J/cm^2
[9] = 10 min incubation, up to 16 J/cm2 of red light
[10] = same fluence as for the fullerenes, presence or absence of serum

C[N+]1(C)CC2c3c4ccc5c6ccc7c8ccc9c%10ccc%11c(c%12c3c3c4c5c4c6c7c5c8c9c6c%10c%11c%12c7c3c4c5c67)C2C1 (stereo not drawn) [CI1]
Kow (octanol-water partition constant) [1]: 140.80
LogKow [1]: 2.15
solubility in DMSO (stock solution) [2]: poorly soluble
dark toxicity to S. aureus (killing) ([3]; 100 μM, 10 min, 0 J/cm^2): 99%
PDI of S. aureus ([3]; 100, 50, 25, 10 and 1 μM, with a wash, white light 4-8 J/cm2): fluence-dependent loss of viability
change of E. coli killing in the presence of serum versus no serum ([4]; 10 min, 10% FBS, with a wash): unchanged
PDT activity against E. coli ([4]; 10 min): effectively killed
killing of E. coli ([4]; with a wash, 8 J/cm^2 white light): 3 logs
PDT activity against P. aeruginosa ([5]; 10 min): effectively killed
killing of P. aeruginosa ([5]; 10 min, with a wash, white light up to 16 J/cm^2): 2 logs
PDT activity against C. albicans ([6]; 10 min): effectively killed
toxicity to L929 mammalian cells at fluences used for PDI of pathogens [7]: not killed
PDT activity against S. aureus ([8]; 1 μM): effectively killed
dark toxicity to S. aureus ([8]; 10 and 1 μM, with a wash): nonexistent

C[N+]1(C)Cc2c(c3c4ccc5c6c7c(c8c9ccc%10c%11c%12c%13c(c2c2c3c3c4c5c4c6c8c5c9c%10c%12c6c(c%132)c3c4c56)C2C[N+](C)(C)CC%112)C[N+](C)(C)C7)C1 (stereo not drawn) [CI3]
Kow (octanol-water partition constant) [1]: 0.37
LogKow [1]: −0.43
change of E. coli killing in the presence of serum versus no serum ([4]; 10 min, 10% FBS, with a wash): about 1 log
PDT activity against E. coli ([4]; 10 min): effectively killed
killing of E. coli ([4]; with a wash, 2 J/cm^2 white light): 6 logs
PDT activity against P. aeruginosa ([5]; 10 min): effectively killed
PDT activity against C. albicans ([6]; 10 min): effectively killed
relative effectiveness in killing C. albicans ([6]; 10 min, with a wash, white light): slightly more effective than CI2
toxicity to L929 mammalian cells at fluences used for PDI of pathogens [7]: not killed
PDT activity against S. aureus ([8]; 1 μM): effectively killed
light sufficient to kill 4-5 logs of S. aureus ([8]; 1 μM, with a wash, white light): 1 J/cm^2

Cc1cc2nc3ccc(N(C)C)cc3[s+]c2cc1N.[Cl-] [TBO, toluidine blue O, reference compound]
PDI of E. coli in the presence of serum ([4]; 10 min, 10% FBS, with a wash, red light): almost ineffective
killing of E. coli [4, 9]: ≤ 90%
killing of P. aeruginosa [5, 9]: ≤ 90%
killing of P. aeruginosa [5, 10]: less than 1 log
killing of C. albicans [6, 9]: ≤ 90%
killing of C. albicans [6, 10]: less than 1 log
dark toxicity toward L929 cells (killing) ([7]; 10% FBS, with a wash): little dark toxicity
fluence at which the limit of the viability assay was reached (L929) ([7]; 10% FBS, with a wash, red light): 80 J/cm^2
additional phototoxicity toward L929 cells ([7]; 10% FBS, with a wash, white or red light up to 120 J/cm^2): pronounced light-dependent toxicity
killing of S. aureus ([8]; 1 μM, 10 min incubation, up to 16 J/cm2 of red light): ≤ 90%
killing of S. aureus ([8]; 1 μM, same fluence as for the fullerenes, presence or absence of serum): less than 1 log
